Measurements as given in ChEMBL document CHEMBL3745709, “Synthesis of novel ethyl 1-ethyl-6-fluoro-7-(fatty amido)-1,4-dihydro-4-oxoquinoline-3-carboxylate derivatives and their biological evaluation” (Bioorg Med Chem Lett, 2016).
Values after ≈ are worked out from the molar mass of the structure shown.

Legend:
[1] = Cytotoxicity against human DU145 cells assessed as reduction in cell viability by MTT assay; type: functional, cell-based; conditions: DU-145
A549 = assay: Cytotoxicity against human A549 cells assessed as reduction in cell viability by MTT assay; type: functional, cell-based
[2] = Cytotoxicity against human SKOV3 cells assessed as reduction in cell viability by MTT assay; type: functional, cell-based; conditions: SK-OV-3
MCF7 = assay: Cytotoxicity against human MCF7 cells assessed as reduction in cell viability by MTT assay; type: functional, cell-based
[3] = Antioxidant activity assessed as DPPH free radical scavenging activity; type: physicochemical
Micrococcus luteus = assay: Antibacterial activity against Micrococcus luteus MTCC 2470 assessed as inhibition zone after 24 hrs at 30 degC by well diffusion method; type: functional; conditions: MTCC 2470, 24 h
Staphylococcus aureus [4] = assay: Antibacterial activity against Staphylococcus aureus MTCC 96 […] after 24 hrs at 30 degC by well diffusion method; type: functional; conditions: MTCC 96, 24 h
Staphylococcus aureus [5] = assay: Antibacterial activity against Staphylococcus aureus MLS-16 MTCC 2940 assessed as inhibition zone after 24 hrs at 30 degC by well diffusion method; type: functional; conditions: MLS-16 MTCC 2940, 24 h
Bacillus subtilis [6] = assay: Antibacterial activity against Bacillus subtilis MTCC 121 assessed as inhibition zone after 24 hrs at 30 degC by well diffusion method; type: functional; conditions: MTCC 121, 24 h
Escherichia coli [7] = assay: Antibacterial activity against Escherichia coli MTCC 739 assessed as inhibition zone after 24 hrs at 30 degC by well diffusion method; type: functional; conditions: MTCC 739, 24 h
Pseudomonas aeruginosa = assay: Antibacterial activity against Pseudomonas aeruginosa MTCC 2453 assessed as inhibition zone after 24 hrs at 30 degC by well diffusion method; type: functional; conditions: MTCC 2453, 24 h
Raoultella planticola = assay: Antibacterial activity against Klebsiella planticola MTCC 530 assessed as inhibition zone after 24 hrs at 30 degC by well diffusion method; type: functional; conditions: MTCC 530, 24 h
Candida albicans [8] = assay: Antifungal activity against Candida albicans MTCC 3017 […] after 24 hrs at 30 degC by well diffusion method; type: functional; conditions: MTCC 3017, 24 h
Bacillus subtilis [9] = assay: Antibiofilm activity against Bacillus subtilis MTCC 121 after 24 hrs by crystal violet staining method; type: functional, organism-based; conditions: MTCC 121, 24 h
Staphylococcus aureus [10] = assay: Antibiofilm activity against Staphylococcus aureus MTCC 96 after 24 hrs by crystal violet staining method; type: functional, organism-based; conditions: MTCC 96, 24 h
Bacillus subtilis [11] = assay: Bactericidal activity against Bacillus subtilis MTCC 121 assessed as microbial killing after 24 hrs; type: functional; conditions: MTCC 121, 24 h
Staphylococcus aureus [12] = assay: Bactericidal activity against Staphylococcus aureus MTCC 96 assessed as microbial killing after 24 hrs; type: functional; conditions: MTCC 96, 24 h
Staphylococcus aureus [13] = assay: Bactericidal activity against Staphylococcus aureus MLS-16 MTCC 2940 assessed as microbial killing after 24 hrs; type: functional; conditions: MLS-16 MTCC 2940, 24 h
Escherichia coli [14] = assay: Bactericidal activity against Escherichia coli MTCC 739 assessed as microbial killing after 24 hrs; type: functional; conditions: MTCC 739, 24 h
Staphylococcus aureus [15] = assay: Antibiofilm activity against Staphylococcus aureus MLS-16 MTCC 2940 after 24 hrs by crystal violet staining method; type: functional, organism-based; conditions: MLS-16 MTCC 2940, 24 h
Escherichia coli [16] = assay: Antibiofilm activity against Escherichia coli MTCC 739 after 24 hrs by crystal violet staining method; type: functional, organism-based; conditions: MTCC 739, 24 h
[17] = Cytotoxicity against human IMR90 cells assessed as reduction in cell viability by MTT assay; type: cell-based; conditions: IMR-90
Pichia sporocuriosa [18] = assay: Fungicidal activity against Issatchenkia hanoiensis MTCC 4755 assessed as microbial killing after 24 hrs; type: functional; conditions: MTCC 4755, 24 h
Candida albicans [19] = assay: Antifungal activity against Candida albicans MTCC 183 assessed as inhibition zone after 24 hrs at 30 degC by well diffusion method; type: functional; conditions: MTCC 183, 24 h
Candida albicans [20] = assay: Antifungal activity against Candida albicans MTCC 227 assessed as inhibition zone after 24 hrs at 30 degC by well diffusion method; type: functional; conditions: MTCC 227, 24 h
Candida albicans [21] = assay: Antifungal activity against Candida albicans MTCC 854 assessed as inhibition zone after 24 hrs at 30 degC by well diffusion method; type: functional; conditions: MTCC 854, 24 h
Candida albicans [22] = assay: Antifungal activity against Candida albicans MTCC 1637 assessed as inhibition zone after 24 hrs at 30 degC by well diffusion method; type: functional; conditions: MTCC 1637, 24 h
Candida albicans [23] = assay: Antifungal activity against Candida albicans MTCC 3018 assessed as inhibition zone after 24 hrs at 30 degC by well diffusion method; type: functional; conditions: MTCC 3018, 24 h
Candida albicans [24] = assay: Antifungal activity against Candida albicans MTCC 3958 assessed as inhibition zone after 24 hrs at 30 degC by well diffusion method; type: functional; conditions: MTCC 3958, 24 h
Candida albicans [25] = assay: Antifungal activity against Candida albicans MTCC 4748 assessed as inhibition zone after 24 hrs at 30 degC by well diffusion method; type: functional; conditions: MTCC 4748, 24 h
Candida albicans [26] = assay: Antifungal activity against Candida albicans MTCC 7315 assessed as inhibition zone after 24 hrs at 30 degC by well diffusion method; type: functional; conditions: MTCC 7315, 24 h
Candida parapsilosis [27] = assay: Antifungal activity against Candida parapsilosis MTCC 1744 assessed as inhibition zone after 24 hrs at 30 degC by well diffusion method; type: functional; conditions: Lodderomyces parapsilosis, MTCC 1744, 24 h
[Candida] aaseri [28] = Antifungal activity against Candida aaseri MTCC 1962 assessed as inhibition zone after 24 hrs at 30 degC by well diffusion method; type: functional; conditions: Yamadazyma aaseri, MTCC 1962, 24 h
Nakaseomyces glabratus [29] = assay: Antifungal activity against Candida glabrata MTCC 3019 assessed as inhibition zone after 24 hrs at 30 degC by well diffusion method; type: functional; conditions: MTCC 3019, 24 h
Pichia kudriavzevii [30] = assay: Antifungal activity against Candida krusei MTCC 3020 assessed as inhibition zone after 24 hrs at 30 degC by well diffusion method; type: functional; conditions: MTCC 3020, 24 h
Pichia sporocuriosa [31] = assay: Antifungal activity against Issatchenkia hanoiensis MTCC 4755 assessed as inhibition zone after 24 hrs at 30 degC by well diffusion method; type: functional; conditions: MTCC 4755, 24 h
Candida albicans [32] = assay: Fungicidal activity against Candida albicans MTCC 183 assessed as microbial killing after 24 hrs; type: functional; conditions: MTCC 183, 24 h
Candida albicans [33] = assay: Fungicidal activity against Candida albicans MTCC 227 assessed as microbial killing after 24 hrs; type: functional; conditions: MTCC 227, 24 h
Candida albicans [34] = assay: Fungicidal activity against Candida albicans MTCC 854 assessed as microbial killing after 24 hrs; type: functional; conditions: MTCC 854, 24 h
Candida albicans [35] = assay: Fungicidal activity against Candida albicans MTCC 1637 assessed as microbial killing after 24 hrs; type: functional; conditions: MTCC 1637, 24 h
Candida albicans [36] = assay: Fungicidal activity against Candida albicans MTCC 3017 assessed as microbial killing after 24 hrs; type: functional; conditions: MTCC 3017, 24 h
Candida albicans [37] = assay: Fungicidal activity against Candida albicans MTCC 3018 assessed as microbial killing after 24 hrs; type: functional; conditions: MTCC 3018, 24 h
Candida albicans [38] = assay: Fungicidal activity against Candida albicans MTCC 3958 assessed as microbial killing after 24 hrs; type: functional; conditions: MTCC 3958, 24 h
Candida albicans [39] = assay: Fungicidal activity against Candida albicans MTCC 4748 assessed as microbial killing after 24 hrs; type: functional; conditions: MTCC 4748, 24 h
Candida albicans [40] = assay: Fungicidal activity against Candida albicans MTCC 7315 assessed as microbial killing after 24 hrs; type: functional; conditions: MTCC 7315, 24 h
Candida parapsilosis [41] = assay: Fungicidal activity against Candida parapsilosis MTCC 1744 assessed as microbial killing after 24 hrs; type: functional; conditions: Lodderomyces parapsilosis, MTCC 1744, 24 h
[Candida] aaseri [42] = Fungicidal activity against Candida aaseri MTCC 1962 assessed as microbial killing after 24 hrs; type: functional; conditions: Yamadazyma aaseri, MTCC 1962, 24 h
Nakaseomyces glabratus [43] = assay: Fungicidal activity against Candida glabrata MTCC 3019 assessed as microbial killing after 24 hrs; type: functional; conditions: MTCC 3019, 24 h
Pichia kudriavzevii [44] = assay: Fungicidal activity against Candida krusei MTCC 3020 assessed as microbial killing after 24 hrs; type: functional; conditions: MTCC 3020, 24 h

Molecule CCCCCCCCCCCCCCCC(=O)Nc1cc2c(cc1F)c(=O)c(C(=O)OCC)cn2CC has an IC50 [1] of 25.2 µM, an IC50 (A549) of 24.3 µM and an IC50 [2] of 17.8 µM. The IC50 (MCF7) was 18.6 µM, the EC50 [3] was “Not Active” and the MIC (Micrococcus luteus) was over 125 µg/mL. For the same molecule, the MIC (Staphylococcus aureus [4]) was over 125 µg/mL, the MIC (Staphylococcus aureus [5]) was over 125 µg/mL and the MIC (Bacillus subtilis [6]) was over 125 µg/mL. For the same molecule, the MIC (Escherichia coli [7]) was over 125 µg/mL, the MIC (Pseudomonas aeruginosa) was over 125 µg/mL and the MIC (Raoultella planticola) was over 125 µg/mL. The MIC (Candida albicans [8]) was over 125 µg/mL.
In the case of Cc1c(C)c2c(c(C)c1O)CC[C@@](C)(CCC[C@H](C)CCC[C@H](C)CCCC(C)C)O2 [ALPHA-TOCOPHEROL], the EC50 [3] is reported as 10.4 µg/mL (≈ 24.1 µM).
Molecule Cc1cc(C(C)(C)C)c(O)c(C(C)(C)C)c1 [BUTYLATED HYDROXYTOLUENE] has an EC50 [3] of 28.5 µg/mL (≈ 129 µM).
For O=C(O)c1cn(C2CC2)c2cc(N3CCNCC3)c(F)cc2c1=O [CIPROFLOXACIN], the IC50 (Bacillus subtilis [9]) was 0.7 µg/mL (≈ 2.11 µM), the IC50 (Staphylococcus aureus [10]) was 0.6 µg/mL (≈ 1.81 µM) and the MIC (Micrococcus luteus) was 0.9 µg/mL (≈ 2.72 µM). For the same molecule, the MIC (Staphylococcus aureus [4]) was 0.9 µg/mL (≈ 2.72 µM), the MIC (Staphylococcus aureus [5]) was 0.9 µg/mL (≈ 2.72 µM) and the MIC (Bacillus subtilis [6]) was 0.9 µg/mL (≈ 2.72 µM). For the same molecule, the MIC (Escherichia coli [7]) was 0.9 µg/mL (≈ 2.72 µM), the MIC (Pseudomonas aeruginosa) was 0.9 µg/mL (≈ 2.72 µM) and the MIC (Raoultella planticola) was 0.9 µg/mL (≈ 2.72 µM). It also gave an MBC (Bacillus subtilis [11]) of 1.9 µg/mL (≈ 5.73 µM), an MBC (Staphylococcus aureus [12]) of 0.9 µg/mL (≈ 2.72 µM) and an MBC (Staphylococcus aureus [13]) of 0.9 µg/mL (≈ 2.72 µM). The MBC (Escherichia coli [14]) was 0.9 µg/mL (≈ 2.72 µM), the IC50 (Staphylococcus aureus [15]) was 0.4 µg/mL (≈ 1.21 µM) and the IC50 (Escherichia coli [16]) was 0.5 µg/mL (≈ 1.51 µM).
COc1cccc2c1C(=O)c1c(O)c3c(c(O)c1C2=O)C[C@@](O)(C(=O)CO)C[C@@H]3O[C@H]1C[C@H](N)[C@H](O)[C@H](C)O1 [DOXORUBICIN] showed an IC50 [1] of 0.7 µM, an IC50 [2] of 0.7 µM and an IC50 [17] of 21.3 µM.
Clc1ccc(COC(Cn2ccnc2)c2ccc(Cl)cc2Cl)c(Cl)c1 (stereo unspecified) [MICONAZOLE] showed an MFC (Pichia sporocuriosa [18]) of 7.8 µg/mL (≈ 18.7 µM), an MIC (Candida albicans [8]) of 7.8 µg/mL (≈ 18.7 µM) and an MIC (Candida albicans [19]) of 7.8 µg/mL (≈ 18.7 µM). For the same molecule, the MIC (Candida albicans [20]) was 7.8 µg/mL (≈ 18.7 µM), the MIC (Candida albicans [21]) was 7.8 µg/mL (≈ 18.7 µM) and the MIC (Candida albicans [22]) was 7.8 µg/mL (≈ 18.7 µM). For the same molecule, the MIC (Candida albicans [23]) was 7.8 µg/mL (≈ 18.7 µM), the MIC (Candida albicans [24]) was 7.8 µg/mL (≈ 18.7 µM) and the MIC (Candida albicans [25]) was 7.8 µg/mL (≈ 18.7 µM). For the same molecule, the MIC (Candida albicans [26]) was 7.8 µg/mL (≈ 18.7 µM), the MIC (Candida parapsilosis [27]) was 7.8 µg/mL (≈ 18.7 µM) and the MIC ([Candida] aaseri [28]) was 7.8 µg/mL (≈ 18.7 µM). The MIC (Nakaseomyces glabratus [29]) was 7.8 µg/mL (≈ 18.7 µM), the MIC (Pichia kudriavzevii [30]) was 7.8 µg/mL (≈ 18.7 µM) and the MIC (Pichia sporocuriosa [31]) was 7.8 µg/mL (≈ 18.7 µM). The MFC (Candida albicans [32]) was 7.8 µg/mL (≈ 18.7 µM), the MFC (Candida albicans [33]) was 15.6 µg/mL (≈ 37.5 µM) and the MFC (Candida albicans [34]) was 15.6 µg/mL (≈ 37.5 µM). The MFC (Candida albicans [35]) was 15.6 µg/mL (≈ 37.5 µM), the MFC (Candida albicans [36]) was 7.8 µg/mL (≈ 18.7 µM) and the MFC (Candida albicans [37]) was 7.8 µg/mL (≈ 18.7 µM). The MFC (Candida albicans [38]) was 15.6 µg/mL (≈ 37.5 µM), the MFC (Candida albicans [39]) was 7.8 µg/mL (≈ 18.7 µM) and the MFC (Candida albicans [40]) was 7.8 µg/mL (≈ 18.7 µM). The MFC (Candida parapsilosis [41]) was 7.8 µg/mL (≈ 18.7 µM), the MFC ([Candida] aaseri [42]) was 7.8 µg/mL (≈ 18.7 µM) and the MFC (Nakaseomyces glabratus [43]) was 15.6 µg/mL (≈ 37.5 µM). It also gave an MFC (Pichia kudriavzevii [44]) of 7.8 µg/mL (≈ 18.7 µM).
